The values below come from patent publication US9394285B2 (Pfizer Inc., priority 2013, dated 2016).

The term EC50 denotes the midpoint of the concentration-response curve. A high value points to weaker potency.

Structures are written as SMILES. Where only a bound is given, the exact number is not on record here.

This assay addresses human AMPK (full-length γ1, β1 and α1 subunits) (Homo sapiens (Human), UniProt Q13131+Q9Y478). The assay is described as follows: AMPK in vitro biochemical assay (33P-based, SAMS peptide, PP2A dephosphorylation). To be noted: for EC50: activation of phosphorylated AMPK, 33P-ATP, SAMS peptide, PP2A treatment, 4-parameter fit; for Emax: read-out: Maximum. A digest of the protocol:
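Phosphorylated full-length α1β1γ1 AMPK (E. coli-expressed, His-purified, gel-filtered) preincubated 15 min RT with compound in HEPES pH 7.5, 10 mM MgCl2 buffer, then PP2A added to dephosphorylate pThr172.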

[1] abbreviates: counts as % of positive control wells (enzyme, allosteric activator or AMP, PP2A and substrate).

Chain of human AMPK (full-length γ1, β1 and α1 subunits) (Q13131 whole entry): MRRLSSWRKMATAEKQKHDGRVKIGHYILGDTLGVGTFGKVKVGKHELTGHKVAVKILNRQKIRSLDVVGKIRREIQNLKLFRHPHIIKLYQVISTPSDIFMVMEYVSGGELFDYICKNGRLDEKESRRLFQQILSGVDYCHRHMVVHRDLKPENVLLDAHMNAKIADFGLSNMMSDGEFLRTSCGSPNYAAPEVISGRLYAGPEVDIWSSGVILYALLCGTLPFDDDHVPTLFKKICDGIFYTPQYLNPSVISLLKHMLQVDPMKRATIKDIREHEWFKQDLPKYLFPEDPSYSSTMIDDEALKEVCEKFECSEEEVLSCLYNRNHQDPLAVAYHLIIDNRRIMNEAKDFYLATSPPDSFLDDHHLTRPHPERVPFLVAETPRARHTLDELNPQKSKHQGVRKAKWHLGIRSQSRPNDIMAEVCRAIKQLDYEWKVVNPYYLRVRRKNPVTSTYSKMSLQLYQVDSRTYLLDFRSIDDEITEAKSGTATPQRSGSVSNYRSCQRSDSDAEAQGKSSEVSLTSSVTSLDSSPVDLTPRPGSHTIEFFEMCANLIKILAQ
Chain of human AMPK (full-length γ1, β1 and α1 subunits) (Q9Y478 whole entry): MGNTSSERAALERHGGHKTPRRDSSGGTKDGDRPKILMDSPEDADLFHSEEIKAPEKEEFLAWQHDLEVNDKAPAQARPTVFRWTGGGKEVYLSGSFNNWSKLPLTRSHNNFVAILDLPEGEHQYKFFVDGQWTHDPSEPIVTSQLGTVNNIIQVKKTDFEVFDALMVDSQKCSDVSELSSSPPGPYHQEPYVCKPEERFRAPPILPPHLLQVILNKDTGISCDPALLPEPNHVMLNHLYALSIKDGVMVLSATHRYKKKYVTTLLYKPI
Chain of human AMPK (full-length γ1, β1 and α1 subunits) (P54619 whole entry partner): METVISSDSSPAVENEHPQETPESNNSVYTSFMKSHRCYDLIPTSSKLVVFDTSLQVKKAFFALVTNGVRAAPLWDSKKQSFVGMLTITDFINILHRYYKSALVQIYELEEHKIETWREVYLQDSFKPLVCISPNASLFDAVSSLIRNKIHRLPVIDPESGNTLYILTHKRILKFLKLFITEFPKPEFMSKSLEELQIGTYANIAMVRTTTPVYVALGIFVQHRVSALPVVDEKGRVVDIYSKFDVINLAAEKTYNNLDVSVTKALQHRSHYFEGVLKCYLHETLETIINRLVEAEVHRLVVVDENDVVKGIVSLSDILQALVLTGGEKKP

In turn, `COc1cc(-c2cc3c(C(=O)O)c[nH]c3cc2Cl)ccc1OC[C@@H]1CCCN1` [Example 55, (S)-6-Chloro-5-(3-methoxy-4-(pyrrolidin-2-ylmethoxy)phenyl)-1H-indole-3-carboxylic acid] had an EC50 of 209 nM. Also, the Emax under setting [1] worked out at 87%.

Consider `COc1cc(-c2cc3c(C(=O)O)c[nH]c3cc2F)ccc1C1(O)CCC1` [Example 25, 6-fluoro-5-[4-(1-hydroxycyclobutyl)-3-methoxyphenyl]-1H-indole-3-carboxylic acid], for which the EC50 was found to be 111 nM. Besides, the Emax under setting [1] was 78%. In the case of `CC(C)(CO)c1ccc(-c2cc3c(C(=O)O)c[nH]c3cc2Cl)cc1O` [Example 148, 6-chloro-5-[3-hydroxy-4-(1-hydroxy-2-methylpropan-2-yl)phenyl]-1H-indole-3-carboxylic acid], the EC50 worked out at 6.56 nM. Moreover, the Emax under setting [1] was 119%. In the case of `O=C(O)c1c[nH]c2cc(Cl)c(-c3ccc(C4(CO)CCC4)c(F)c3)cc12` [Example 142, 6-chloro-5-{3-fluoro-4-[1-(hydroxymethyl)cyclobutyl]phenyl}-1H-indole-3-carboxylic acid], the EC50 was 21.5 nM. Moreover, the Emax under setting [1] was 92.9%. The corresponding values for `CN1CCN(CCCOc2ccc(-c3cc4c(C(=O)O)c[nH]c4cc3Cl)cc2)CC1=O` [Example 188, 6-chloro-5-{4-[3-(4-methyl-3-oxopiperazin-1-yl)propoxy]phenyl}-1H-indole-3-carboxylic acid] are 52.7 nM and 129%. The matching figures for `O=C(O)c1c[nH]c2cc(F)c(-c3ccc(OCCCO)cc3)c(F)c12` [Example 28, 4,6-difluoro-5-[4-(3-hydroxypropoxy)phenyl]-1H-indole-3-carboxylic acid]: 1080 nM and 98%. For the compound `O=C(O)c1c[nH]c2cc(Cl)c(-c3ccc(C4(CO)CCC4)cc3)cc12` [Example 72, 6-chloro-5-{4-[1-(hydroxymethyl)cyclobutyl]phenyl}-1H-indole-3-carboxylic acid], the EC50 came to 4.3 nM. The Emax under setting [1] is 107%. `COC(=O)N1CCC(c2ccc(-c3cc4c(C(=O)O)c[nH]c4cc3Cl)cc2)C1` (single isomer, unassigned) [Example 14A, 6-chloro-5-{4-[1-(methoxycarbonyl)pyrrolidin-3-yl]phenyl}-1H-indole-3-carboxylic acid]: it took 101 nM to reach a half-maximal effect (EC50). Moreover, the Emax under setting [1] was determined as 101%.

As for `O=C(O)c1c[nH]c2cc(Cl)c(-c3ccc(CC(=O)N4CCC4)cc3)cc12` [Example 11, 5-{4-[2-(azetidin-1-yl)-2-oxoethyl]phenyl}-6-chloro-1H-indole-3-carboxylic acid], a half-maximal effect (EC50) was put at 554 nM. The Emax under setting [1] turned out to be 73%. Turning to `O=C(O)c1c[nH]c2cc(F)c(-c3ccc(C4CCCO4)cc3)c(F)c12` (stereo not drawn) [Example 152, 4,6-difluoro-5-[4-(tetrahydrofuran-2-yl)phenyl]-1H-indole-3-carboxylic acid], under setting [1], the Emax worked out at 112%.

For `O=C(O)c1n[nH]c2cc(Cl)c(-c3ccc(C4(O)CCC4)cc3)cc12` [Example 103, 6-Chloro-5-(4-(1-hydroxycyclobutyl)phenyl)-1H-indazole-3-carboxylic acid], the half-maximal effective concentration (EC50) turned out to be 8.3 nM. The Emax under setting [1] amounted to 80%. `O=C(O)c1c[nH]c2cc(F)c(-c3ccc(C4CCCCO4)cc3)cc12` (single isomer, unassigned) [Example 171, 6-fluoro-5-[4-(tetrahydro-2H-pyran-2-yl)phenyl]-1H-indole-3-carboxylic acid] came in with an EC50 of 32.9 nM. For the same compound, the Maximum under setting [1] stood at 69.2%. Turning to `O=S(=O)(O)c1c[nH]c2cc(Cl)c(-c3ccc(-c4ccccc4O)cc3)cc12` [Example 133, 6-Chloro-5-(2′-hydroxy-[1,1′-biphenyl]-4-yl)-1H-indole-3-sulfonic acid], the EC50 is above 50000 nM.
